Several values for one entry are separate records, joined by “and”; a condition that tells them apart may be missing. Equal entries are not always repeated.
What was measured:
Format in all cases: in vivo, human
[1] = test system: subjects with T2DM and renal impairment; test: Phase 2a: mixed-meal tolerance test (MMTT) plasma glucose AUC; conditions: for MMTT plasma glucose AUC4 h, LS Mean % Change / MMTT plasma glucose AUC4 h, Difference in LS Mean % Change (vs Placebo) / Percent Change from Baseline in MMTT plasma glucose AUC4 h, Mean / Percent Change from Baseline in MMTT plasma glucose AUC4 h, Median: Day −5 to Day 32; for MMTT plasma glucose AUC4 h, LS Mean % Change: ANCOVA; for MMTT plasma glucose AUC4 h, LS Mean % Change / MMTT plasma glucose AUC4 h, Difference in LS Mean % Change (vs Placebo) / Percent Change from Baseline in MMTT plasma glucose AUC4 h, Mean / Percent Change from Baseline in MMTT plasma glucose AUC4 h, Median / MMTT plasma glucose AUC4 h, Day 32, Mean / MMTT plasma glucose AUC4 h, Day 32, Median: ITT
Description: (§1) Cotadutide was titrated from 50 μg up to 300 μg and administered once daily by subcutaneous (SC) injection over 32 days.
(§2) Cotadutide was administered at 50 μg once daily for 4 days, followed by 100 μg daily for 7 days, 200 μg daily for 7 days, and 300 μg daily for 14 days (n=20). Placebo was administered one daily for 32 days (n=20). Cotadutide and placebo were administered in the morning. Dosing commenced following predose baseline vital signs, blood tests (including HbA1c), an electrocardiogram (ECG), body weight measurement, and bioimpedance spectroscopy (BIS). Subjects then returned for daily dosing or remained overnight locally until Day 5, and thereafter, had visits at weekly intervals until a maintenance dose of 300 μg was established. Thus, Cotadutide or placebo was administered at the study site by study personal for the first four doses and on site on Days 5, 12, 19, and 32. At all other times, subjects preformed dosing at home.
The effect of Cotadutide titrated up to a dose level of 300 μg on glucose control vs placebo after 32 days of treatment was assessed by a standardized mixed-meal tolerance test (MMTT) to determine the percentage change in glucose from area under the concentration-time curve (AUC) from baseline (Day −5) to the end of 32 days of treatment.
Following a minimum 8-hour fast, the subject underwent an MMTT, which involved the consumption of a standardized liquid meal (Ensure Plus, a nutritional supplement containing the components of fat, carbohydrate, and protein, which make up a standard MMTT) within 15 minutes, and timed serial blood samples were obtained for measurement of glucose through 240 minutes after consumption of the standardized meal (with no additional food intake during this time). Blood was drawn within 15 minutes before consuming the standardized liquid meal (i.e., “0 minutes”), and at 15, 30, 45, 60, 90, 120, 180, and 240 minutes (±5 minutes) after consumption. Blood sampling occurred as close as possible to the specified times for the MMTT. At Day 32, the serial blood sampling begins 2.5 hours after Cotadutide or placebo administration.
Subjects who used a quick acting or pre-mixed form of insulin with breakfast received their usual/current dose of breakfast-time insulin with the Ensure Plus milkshake i.e., dose reduction of insulin was not required. Subjects who carbohydrate counted or varied insulin dose in relation to meal type were advised that the Ensure Plus milkshake contained approximately 44.4 g of carbohydrate, 10.8 g of fat, and 13.8 g of protein and to adjust their insulin dose on this basis. The timing of insulin administration in relation to the Ensure Plus milkshake consumption was in accordance with the usual regimen used by the subject, e.g., if a subject injected insulin 30 minutes before breakfast, they were to inject insulin 30 minutes before the Ensure Plus milkshake.
The investigators also considered whether a dose reduction in insulin and/or sulfonylurea or glitinide was required for this fasting assessment on Day 32.
The change in the mixed-meal tolerance test (MMTT) plasma glucose AUC from the baseline (Day −5) to end of 32 days of treatment was evaluated in the ITT population using an analysis of covariance (ANCOVA) model. The model included fixed effect of treatment and baseline AUC as a covariate. The difference of the percent change in glucose AUC between the two treatment arms was compared with a two-sided significance level of 0.10.

[2] = test system: subjects with T2DM and renal impairment; test: Phase 2a: fasting glucose blood test; conditions: ITT; for Fasting Glucose LS Mean Change / Fasting Glucose Change from Baseline, Mean / Fasting Glucose Change from Baseline, Median / Fasting Glucose Difference in LS Mean Change (vs Placebo): Day 1 to Day 32; for Fasting Glucose LS Mean Change: ANCOVA
Description: as §1, §2
Blood samples were collected to evaluate blood glucose (fasting) and HbA1c levels.
Fasting glucose was measured from baseline (Day 1) to the end of treatment (Day 32). […] LS mean reduction of fasting glucose from baseline was more apparent in subjects in the Insulin Dose <20 U/day subgroup compared to Insulin Dose ≥20 U/day subgroup.

[3] = test system: subjects with T2DM and renal impairment; test: Phase 2a: bioimpedance spectroscopy (fluid status); conditions: baseline (Day 1) to end of dosing
Description: Assessment of body composition, including but not limited to extracellular and intracellular volume and total body water, were conducted with bioimpedance spectroscopy using the SFB7 device produced by ImpediMed. Bioimpedance spectroscopy measures were not conducted in any subject with a pacemaker or implantable electronic device, e.g., an implantable cardiac defibrillator, as described in the manufacturer's instructions.
Bioimpedance spectroscopy was performed prior to dosing on Visit 4 (Day 1; Baseline) and following dosing on Visits 6 (Day 5), 7 (Day 12), 8 (Day 19), and 9 (Day 32). Subjects were to void their bladder and abstain from exercising 2 hours prior to the assessment. The subjects laid in a supine position 5 minutes before the measurement, while not touching any metal surfaces. The subjects' limbs were not crossed, the legs were completely separated, and the arms were not to touch the torso. For subjects who could not effectively separate their inner thighs, insulating material (e.g., a towel) may have been between the legs. The bioimpedance spectroscopy was set to make three repeat measurements. The subject was to remain still and relaxed during the measurement. The points of contact for the electrodes were marked on the subject's skin and the same positions used at all occasions. […]

CCCCCCCCCCCCCCCC(=O)N[C@@H](CCC(=O)NCCCC[C@H](NC(=O)[C@H](CC(=O)O)NC(=O)[C@H](CO)NC(=O)[C@@H](NC(=O)[C@H](Cc1ccccc1)NC(=O)[C@@H](NC(=O)CNC(=O)[C@H](CCC(N)=O)NC(=O)[C@H](CO)NC(=O)[C@@H](N)Cc1c[nH]cn1)[C@@H](C)O)[C@@H](C)O)C(=O)N[C@@H](CO)C(=O)N[C@@H](CCC(=O)O)C(=O)N[C@@H](Cc1ccc(O)cc1)C(=O)N[C@@H](CC(C)C)C(=O)N[C@@H](CC(=O)O)C(=O)N[C@@H](CO)C(=O)N[C@@H](CCC(=O)O)C(=O)N[C@@H](CCCNC(=N)N)C(=O)N[C@@H](C)C(=O)N[C@@H](CCCNC(=N)N)C(=O)N[C@@H](CC(=O)O)C(=O)N[C@@H](Cc1ccccc1)C(=O)N[C@H](C(=O)N[C@@H](C)C(=O)N[C@@H](Cc1c[nH]c2ccccc12)C(=O)N[C@@H](CC(C)C)C(=O)N[C@@H](CCC(=O)O)C(=O)N[C@@H](C)C(=O)NCC(=O)NCC(=O)O)C(C)C)C(=O)O [Cotadutide]
MMTT plasma glucose AUC4 h, LS Mean % Change ([1]; Insulin Dose < 20 U/day): −27.16%
MMTT plasma glucose AUC4 h, LS Mean % Change ([1]; Insulin Dose ≥ 20 U/day): −25.313%
MMTT plasma glucose AUC4 h, LS Mean % Change ([1]; Total): −26.71% and −26.7%
MMTT plasma glucose AUC4 h, LS Mean % Change ([1]; Total, listed as MEDI0382): −26.71%
MMTT plasma glucose AUC4 h, LS Mean % Change ([1]; eGFR 30-44 mL/min/1.73 m^2): −27.59%
MMTT plasma glucose AUC4 h, LS Mean % Change ([1]; eGFR 45-59 mL/min/1.73 m^2): −27.95%
MMTT plasma glucose AUC4 h, Difference in LS Mean % Change (vs Placebo) ([1]; Insulin Dose < 20 U/day): −36.37%
Percent Change from Baseline in MMTT plasma glucose AUC4 h, Mean ([1]; Insulin Dose < 20 U/day): −31.99%
Percent Change from Baseline in MMTT plasma glucose AUC4 h, Median ([1]; Insulin Dose < 20 U/day): −36.99%
MMTT plasma glucose AUC4 h, Difference in LS Mean % Change (vs Placebo) ([1]; Insulin Dose ≥ 20 U/day): −25.751%
Percent Change from Baseline in MMTT plasma glucose AUC4 h, Mean ([1]; Insulin Dose ≥ 20 U/day): −25.00%
Percent Change from Baseline in MMTT plasma glucose AUC4 h, Median ([1]; Insulin Dose ≥ 20 U/day): −22.850%
MMTT plasma glucose AUC4 h, Difference in LS Mean % Change (vs Placebo) ([1]; Total): −30.38%
Percent Change from Baseline in MMTT plasma glucose AUC4 h, Mean ([1]; Total): −27.719%
Percent Change from Baseline in MMTT plasma glucose AUC4 h, Median ([1]; Total): −27.45%
MMTT plasma glucose AUC4 h, Difference in LS Mean % Change (vs Placebo) ([1]; eGFR 30-44 mL/min/1.73 m^2): −31.64%
Percent Change from Baseline in MMTT plasma glucose AUC4 h, Mean ([1]; eGFR 30-44 mL/min/1.73 m^2): −24.41%
Percent Change from Baseline in MMTT plasma glucose AUC4 h, Median ([1]; eGFR 30-44 mL/min/1.73 m^2): −22.90%
MMTT plasma glucose AUC4 h, Difference in LS Mean % Change (vs Placebo) ([1]; eGFR 45-59 mL/min/1.73 m^2): −32.87%
Percent Change from Baseline in MMTT plasma glucose AUC4 h, Mean ([1]; eGFR 45-59 mL/min/1.73 m^2): −29.83%
Percent Change from Baseline in MMTT plasma glucose AUC4 h, Median ([1]; eGFR 45-59 mL/min/1.73 m^2): −37.00%
MMTT plasma glucose AUC4 h, Day 32, Mean ([1]; Insulin Dose < 20 U/day): 594.85 mg·h/dL
MMTT plasma glucose AUC4 h, Day 32, Median ([1]; Insulin Dose < 20 U/day): 599.41 mg·h/dL
MMTT plasma glucose AUC4 h, Day 32, Mean ([1]; Insulin Dose ≥ 20 U/day): 679.23 mg·h/dL
MMTT plasma glucose AUC4 h, Day 32, Median ([1]; Insulin Dose ≥ 20 U/day): 700.08 mg·h/dL
MMTT plasma glucose AUC4 h, Day 32, Mean ([1]; Total): 646.42 mg·h/dL
MMTT plasma glucose AUC4 h, Day 32, Median ([1]; Total): 619.33 mg·h/dL
MMTT plasma glucose AUC4 h, Day 32, Mean ([1]; eGFR 30-44 mL/min/1.73 m^2): 618.21 mg·h/dL
MMTT plasma glucose AUC4 h, Day 32, Median ([1]; eGFR 30-44 mL/min/1.73 m^2): 700.10 mg·h/dL
MMTT plasma glucose AUC4 h, Day 32, Mean ([1]; eGFR 45-59 mL/min/1.73 m^2): 664.37 mg·h/dL
MMTT plasma glucose AUC4 h, Day 32, Median ([1]; eGFR 45-59 mL/min/1.73 m^2): 605.70 mg·h/dL
postprandial plasma glucose concentrations on Day 32 ([1]; pre-standardized liquid meal to 180 minutes post meal): lower than placebo
Fasting Glucose LS Mean Change ([2]; Insulin Dose < 20 U/day): -32.24 mg/dL
Fasting Glucose LS Mean Change ([2]; Insulin Dose ≥ 20 U/day): -12.28 mg/dL
Fasting Glucose LS Mean Change ([2]; Total): -19.55 mg/dL
Fasting Glucose Change from Baseline, Mean ([2]; Insulin Dose < 20 U/day): -31.79 mg/dL
Fasting Glucose Change from Baseline, Median ([2]; Insulin Dose < 20 U/day): -39.64 mg/dL
Fasting Glucose Difference in LS Mean Change (vs Placebo) ([2]; Insulin Dose < 20 U/day): -28.11 mg/dL
Fasting Glucose Change from Baseline, Mean ([2]; Insulin Dose ≥ 20 U/day): -9.39 mg/dL
Fasting Glucose Change from Baseline, Median ([2]; Insulin Dose ≥ 20 U/day): -9.01 mg/dL
Fasting Glucose Difference in LS Mean Change (vs Placebo) ([2]; Insulin Dose ≥ 20 U/day): -15.02 mg/dL
Fasting Glucose Change from Baseline, Mean ([2]; Total): -17.64 mg/dL
Fasting Glucose Change from Baseline, Median ([2]; Total): -19.82 mg/dL
Fasting Glucose Difference in LS Mean Change (vs Placebo) ([2]; Total): -20.15 mg/dL
Fasting Glucose, Day 32, Mean ([2]; Insulin Dose < 20 U/day): 125.75 mg/dL
Fasting Glucose, Day 32, Median ([2]; Insulin Dose < 20 U/day): 125.24 mg/dL
Fasting Glucose, Day 32, Mean ([2]; Insulin Dose ≥ 20 U/day): 159.03 mg/dL
Fasting Glucose, Day 32, Median ([2]; Insulin Dose ≥ 20 U/day): 141.91 mg/dL
Fasting Glucose, Day 32, Mean ([2]; Total): 146.77 mg/dL
Fasting Glucose, Day 32, Median ([2]; Total): 139.66 mg/dL
changes in total body water volume, intracellular fluid volume, or extracellular fluid volume vs placebo [3]: no clinically meaningful differences

Reference: patent publication US20210213104A1, “GLUCAGON AND GLP-1 CO-AGONISTS FOR THE TREATMENT OF CHRONIC KIDNEY DISEASE AND DIABETIC KIDNEY DISEASE IN TYPE 2 DIABETES” (MEDIMMUNE LIMITED, priority 2020, published 2021)
